In patent publication US20100222284A1, “COMPOSITION FOR INHIBITING THE ONSET OF ARTERIOSCLEROSIS AND INHIBITION METHOD” (priority 2004, published 2010):

How the values were obtained:
[1] = Basic safety tests (mutagenicity, biodegradability, oral acute toxicity, primary skin irritation, primary eye irritation); conditions: biodegradability and three acute toxicity tests performed by a designated organization
Excerpt: In the development of drugs, quasi drugs, foods and the like, the most important and the biggest hurdle is the verification of safety of a rare sugar as a novel substance. A mutagenicity test, a biodegradability test and three types of acute toxicity tests (an oral acute toxicity test, a primary skin irritation test and a primary eye irritation test) are defined as the most basic safety tests. A rare sugar is a monosaccharide that exists in nature even in a small amount, therefore, it can be predicted that it will be safe. However, it is necessary to perform verification precisely. We asked the designated organization to perform the basic safety tests for three types of rare sugars, D-psicose, D-allose and allitol among rare sugars.

CLA-1 promoter = CLA-1 promoter luciferase reporter gene activity in HepG2 cells; type: cell-based, human; conditions: HepG2, 24 hours; 2.8-22.4 mM D-glucose or 22.4 mM D-psicose
Description: Further, by integrating a 1200 by promoter region of the CLA-1 gene into a luciferase reporter gene, introducing the gene into a cell and measuring the luciferase activity, the transcriptional activity of CLA-1 was determined.
6. The transcriptional activity of CLA-1 was also examined. The luciferase reporter gene containing the CLA-1 promoter was introduced into HepG2 cells and the resulting HepG2 cells were cultured with 2.8 mM (lane 1), 5.6 mM (lane 2), 11.2 mM (lane 3), 22.4 mM (lane 4) D-glucose or 22.4 mM D-psicose for 24 hours and the luciferase activity was measured. A high concentration of D-glucose inhibited the activity of the CLA-1 promoter.

Which basic safety tests [1] does the source give for `O=C[C@H](O)[C@H](O)[C@H](O)[C@H](O)CO` [D-allose] here?
Its basic safety tests is “there are not any problems in the safety”.

Which “activity of the CLA-1 promoter (luciferase activity)” value (CLA-1 promoter) does the source give for `O=C[C@H](O)[C@@H](O)[C@H](O)[C@H](O)CO` [D-glucose, reference compound] here?
Its value is “inhibited”.

With `O=C(CO)[C@H](O)[C@H](O)[C@H](O)CO` [D-psicose] as the compound, how does the “activity of the CLA-1 promoter (luciferase activity)” value (CLA-1 promoter) read?
The value was “did not affect”.

And the basic safety tests [1]?
The basic safety tests was “there are not any problems in the safety”.

For `OC[C@@H](O)[C@@H](O)[C@@H](O)[C@@H](O)CO` [allitol], which basic safety tests [1] is on record?
The basic safety tests was “there are not any problems in the safety”.
